From PubChem BioAssay (NCI)
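Compound exposure: 48 hours, 5 concentrations, 96-well plates. GI50 = concentration required for 50% inhibition of growth. TGI denotes the concentration required for complete inhibition of growth.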

How the values were obtained:
Assay in all cases: DTP human tumour cell line panel, 48 h
SF-268 CNS = system: SF-268 CNS
SNB-19 CNS = system: SNB-19 CNS
UO-31 renal = system: UO-31 renal
NCI-H23 lung = system: NCI-H23 lung
HT29 colon = system: HT29 colon
CCRF-CEM leukemia = system: CCRF-CEM leukemia
SF-539 CNS = system: SF-539 CNS
M14 melanoma = system: M14 melanoma
NCI-H522 lung = system: NCI-H522 lung
DU-145 prostate = system: DU-145 prostate

SMILES | GI50 (SF-268 CNS) [µM] | TGI (SF-268 CNS) [µM] | GI50 (SNB-19 CNS) [µM] | TGI (SNB-19 CNS) [µM] | GI50 (UO-31 renal) [µM] | TGI (UO-31 renal) [µM] | GI50 (NCI-H23 lung) [µM] | TGI (NCI-H23 lung) [µM] | GI50 (HT29 colon) [µM] | TGI (HT29 colon) [µM] | GI50 (CCRF-CEM leukemia) [µM] | TGI (CCRF-CEM leukemia) [µM] | GI50 (SF-539 CNS) [µM] | TGI (SF-539 CNS) [µM] | GI50 (M14 melanoma) [µM] | TGI (M14 melanoma) [µM] | GI50 (NCI-H522 lung) [µM] | TGI (NCI-H522 lung) [µM] | GI50 (DU-145 prostate) [µM] | TGI (DU-145 prostate) [µM]
COc1ccc2c(c1)OC(N)=C(C#N)C2c1cc(OC)c(OC)c(OC)c1 (stereo not given) | 0.0642 | > 100 | 0.0864 | > 100 | 0.433 | > 100 | 0.0362 | > 47.7 | 0.0328 | 0.172 | 0.0337 | > 100 | 0.0316 | 31.8 | 0.0336 | > 100 | 0.0194 | 0.0631 | 0.0279 | 0.0802
C/C(=N\O)c1ccc2ccc3ccccc3c2c1 |  | > 100 |  | > 100 |  | > 100 |  | > 100 |  | > 100 |  | > 100 |  | 38.8 |  | > 100 |  | 72.7 |  | > 100
CN1CCN(CC(=O)N(C)c2ccc(N=C(c3ccccc3)c3c(O)[nH]c4ccc(C#N)cc34)cc2)CC1 | 2.62 | 14.6 | 4.16 | 16.6 | 2.42 | 11.4 | 2.87 | 12.2 | 0.712 | 15 | 1.2 | 12.5 | 0.961 | 2.23 | 1.51 | 3.27 | 5.29 | 22.4 | 3.9 | 14.4
O=C1NC(=NCc2ccccc2Cl)S/C1=C\c1ccc2ncccc2c1 | 18.9 | > 25 | 13.2 | > 25 | > 13.6 | > 25 | 13.5 | > 25 | > 25 | > 25 | 11.2 | > 25 | 3.59 | > 25 | 16.3 | > 25 | 4.75 | > 17.9 | 11.2 | > 25
O=C(O)C1=C/C(=C(/c2ccccc2)c2cc(C(=O)O)c(O)c3ccccc23)c2ccccc2C1=O |  | > 100 |  | > 100 |  | > 100 |  | > 100 |  | > 100 |  | > 100 |  | > 100 |  | > 100 |  | > 100 |  | > 100
O=C1Nc2ccc(Br)cc2C12CC(c1ccccc1)=NN2 (stereo not given) | 9.25 | > 100 | 9.25 | > 100 | 4.46 | > 100 | 5.43 | 77.2 | 4.08 | 13 | 3.67 | 37.7 | 2.1 | 6.02 | 3.25 | > 100 | 3.56 | 9.43 | 3.35 | 16.4
COc1cc(/C=C2\C(=O)N(Cc3ccc(Cl)cc3)c3ccccc32)cc(OC)c1OC | 2.76 | 13.7 | 4.78 | 18 | 2.06 | 6.8 | 2.92 | 13.5 | 3.27 | > 30.5 | 1.41 | 4.82 | 4.95 | 11.1 | 2.45 | 7.01 | 2.2 | 5.93 | 2.05 | 5.04
O=C(Nc1ccc(Oc2ccc3nc(NC(=O)c4ccco4)[nH]c3c2)cc1)Nc1cc(C(F)(F)F)ccc1F | 2.55 | 14.1 | 6.95 | > 25 | 0.874 | 5.27 | 0.852 | 9.08 | 1.18 | 6.09 | 1.85 | > 25 | 0.943 | 5.69 | 0.786 | 5.16 | 3.03 | 9.55 | 2.92 | 10.6
Cc1ccc(CNc2ccc(Br)cc2)cc1 |  | > 100 |  | > 100 |  | 49.2 |  | > 100 |  | 93.4 |  | 78.4 |  | > 100 |  | > 100 |  | 43.9 |  | > 100
O=C1NC(=S)S/C1=C\c1cn(-c2ccccc2)nc1-c1ccccc1 | 17.2 | > 100 | 6.14 | > 100 | 4.39 | 25.2 | 2.68 | 15.9 | 12.5 | 38.3 | 2.5 | 69.8 | 5.53 | 21.1 | 6.75 | 80.2 | 2.96 | 55.1 | 12.6 | > 100
